Results from paper PMC10121968, “Fosgonimeton, a Novel Positive Modulator of the HGF/MET System, Promotes Neurotrophic and Procognitive Effects in Models of Dementia” (Neurotherapeutics, 2022).
Non-standard residues stand in square brackets, D forms with d. Residues, ends and D or L forms follow the SMILES beside them. *: point of attachment. pY = N[C@@H](Cc1ccc(OP(=O)(O)O)cc1)C(=O)O; Hexanoyl = CCCCCC(=O)*; Ahx = NCCCCCC(=O)O

Columns and labels:
[1] = Fosgonimeton solubility (filtration/HPLC in PBS); assay type: physicochemical; conditions: osmolarity-corrected PBS
Description: Fosgonimeton solubility studies were contracted to GVK Biosciences, Hyderabad, India. Stocks of fosgonimeton were prepared in duplicate at several concentrations in osmolarity-corrected PBS and were vortexed to dissolve into solution. The solutions were filtered through a 0.45-µm filter followed by a 0.22-µm filter to remove insoluble particulates. Pre- and postfiltration aliquots were collected, and their concentration was determined via high-performance liquid chromatography.

[2] = Plasma PK in rats after SC injection; assay type: in vivo, rat; conditions: SC
Description: Four male rats were treated with 10 mg/kg fosgo-AM in DMSO via SC injection. Blood was serially collected at 0.08, 0.25, 0.5, 1, 2, and 4 h after dosing. Plasma was obtained by centrifugation with 2% disodium ethylenediaminetetraacetic acid (EDTA) as an anticoagulant. Plasma samples were precipitated with acetonitrile containing internal standard, and the concentration of fosgo-AM was determined by LC/MS/MS.
This study was conducted as described in the “Fosgo-AM PK in Rats” section with the following changes: animals were given 12 mg/kg fosgonimeton in saline with 0.1% glycine via SC injection, and a dose-linear correction was applied to normalize the dose to 10 mg/kg for comparison with the fosgo-AM study. Sample concentrations of both fosgonimeton and fosgo-AM were determined.

Fosgonimeton PK in mice = assay type: in vivo, mouse; conditions: 0.75 mg/kg SC, first tested time point
Description: Three male BALBc mice were treated with 0.75 mg/kg fosgonimeton in saline with 0.1% glycine via SC injection. Blood was serially collected at 0.25, 0.5, 1, 2, and 4 h after dosing. Plasma was obtained by centrifugation with 2% disodium EDTA as an anticoagulant. Plasma samples were precipitated with acetonitrile containing internal standard, and the concentration of fosgonimeton and fosgo-AM was determined by LC/MS/MS.

[3] = Fosgonimeton CNS distribution in rats; assay type: in vivo, rat; conditions: 12 mg/kg fosgonimeton SC, all brain regions
Description: Three male Sprague Dawley rats per time point were given 12 mg/kg fosgonimeton via SC injection. At 0.16, 0.5, and 1 h after dosing, animals were humanely killed and perfused with chilled saline. Brains were collected and dissected into the following brain regions: whole brain, striatum, olfactory bulb, hippocampus, cerebellum, cerebral cortex, and brainstem. Brain regions were homogenized and the exposures of fosgonimeton and fosgo-AM were determined by LC/MS/MS.

[4] = test system: LPS-induced neuroinflammatory mouse model; assay: LPS-induced cognitive impairment, T-maze spontaneous alternation; assay type: in vivo; conditions: 14 days
Description: All animal manipulations were conducted in accordance with the European Directive 2010/63/UE published in the French decree 2013–118 of February 1, 2013, and approved by an independent government-accredited ethics committee (CEEA 35, NEUROFIT, France). Animals for the study consisted of 90 four- to five-week-old CD-1 mice (Janvier, Le Genest St Isle, France). Mice were group-housed and maintained in a room with controlled temperature (21–22 °C) and reversed 12/12 light/dark cycle. The animals had access to food and water ad libitum.
Mice were sorted into the following experimental groups: saline + vehicle (control), LPS + vehicle (LPS), LPS + 0.1 mg/kg memantine, and LPS + fosgonimeton at 0.125, 0.25, 0.5, 1, or 1.25 mg/kg (LPS + fosgo). On day 0 of the study, all groups received either a single intraperitoneal injection of saline or LPS (0.25 mg/kg). During days 1–14, animals received memantine or fosgonimeton treatment once daily. On day 14, 60 min after the last dosing with test compounds or vehicle, mice were assessed for performance on the T-maze spontaneous alternation task.
The T-maze apparatus was made of gray Plexiglas with a main stem (55 cm × 10 cm × 20 cm) and 2 arms (30 cm × 10 cm × 20 cm) positioned at a 90° angle relative to the main stem. A start box (15 cm × 10 cm) was separated from the main stem by a guillotine door. Horizontal doors were also provided to close specific arms during the “forced-choice” alternation task.
The experimental protocol consisted of a single session, which started with 1 forced-choice trial, followed by 14 “free-choice” trials. In the forced-choice trial, the animal was confined for 5 s in the start arm and was then released while either the left or the right goal arm was blocked by a horizontal door. Animals were allowed to explore the maze, eventually entering the open goal arm and afterward returning to the start position. […] The animal was considered to have entered an arm if it placed all 4 paws in the arm. The session was terminated and the animal was removed from the maze after 14 free-choice trials were performed or 10 min elapsed, whichever occurred first. The apparatus was cleaned between each animal run using 70% ethanol. During the trials, animal handling and the visibility of the operator were controlled to minimize interference during testing.
The percentage of alternations over the 14 free-choice trials was determined for each mouse and was used as an index of working memory performance. This percentage was defined as entry into a different goal arm of the T maze over successive trials (e.g., left–right–left–right) and was calculated using the formula: %Alternations=Number of Alternations/14×100
Additionally, percentage of recovery was calculated by normalizing the control group to 100% and the LPS group to 0% and calculating the respective relative response for each individual animal, as follows: %Recovery=(Individual%alternation-meanLPS%alternation)/(Meancontrol%alternation-meanLPS%alternation)
Data were assessed for normality (Shapiro–Wilk) and homoscedasticity (Brown-Forsythe). One-way ANOVA was performed on the data for spontaneous alternations. Dunnett multiple comparison test was used for post hoc pairwise comparisons with the LPS group. The Kruskal–Wallis test was used for percentage of recovery with Dunn’s multiple comparison post hoc test. A value of p < 0.05 was considered to represent a statistically significant difference.

ERK (Thr202/Tyr204) = assay: Phospho-ERK HTRF assay in HEK293 cells; assay type: cell-based, human; conditions: HEK293, HGF 10 ng/mL, vs no HGF treatment
Text: To determine phosphoactivation status of the intracellular signaling molecules ERK (Thr202/Tyr204) or AKT (Ser473), we used homogenous time-resolved fluorescence (HTRF) kits to assess phosphorylation status based on the energy transfer between donor and acceptor phospho-ERK (pERK) or phospho-AKT (pAKT) antibodies. HTRF kit processing for pERK (Phospho-ERK [Thr202/Tyr204] cellular Advanced kit, #64AERPEG, Cisbio, Codolet, France) and pAKT (Phospho-AKT [Ser473] cellular kit, #64AKSPEG, Cisbio, Codolet, France) were carried out per manufacturer instructions. In brief, HEK293 cells were grown at 37 °C, 5% CO2 in DMEM + 10% FBS until approximately 80% confluent. Cells were seeded in polystyrene-treated 96-well cell culture plates at approximately 50,000 cells/well and cultured overnight in 50 µL serum-free growth media. […] Fluorescence emission at 2 different wavelengths (665 nm and 620 nm) were measured on an Envision plate reader (PerkinElmer, Waltham, Massachusetts), and the HTRF ratio of the acceptor and donor emission signals for each well was calculated as follows: HTRF ratio = (665 nm/620 nm) × 10,000. […] Data were assessed for normality (Shapiro–Wilk) and homoscedasticity (Brown-Forsythe). Statistical significance was determined by one-way analysis of variance (ANOVA) with Tukey’s multiple comparison post-test. […]

MDCK cells = assay: MDCK cell scatter behavior assay; assay type: cell-based, canine; conditions: HGF 40 ng/mL, 24 h
Description: Madin-Darby canine kidney (MDCK, ATCC CCL-34) cells were grown at 37 °C, 5% CO2 in Eagle’s Minimum Essential Medium (EMEM) + 10% FBS in T-75 flasks until 80% confluent. Cells were then plated at 1400 cells/well in black-walled, clear-bottom 96-well plates and grown at 37 °C under 5% CO2 for 24 h. Growth media were replaced by serum-free media for 2 h before treatment. Treatments containing HGF and fosgo-AM were made in serum-free media and applied in quintuplicates for 24 h at 37 °C under 5% CO2. Cells were then fixed in chilled 100% EtOH at 4 °C for 20 min and then stained with wheat germ agglutinin conjugated to CF488 (WGA488, Biotium, 29,022–1, Fremont, California) at […] in phosphate-buffered saline (PBS) for 30 min at RT to visualize whole-cell surfaces. Cultures were then imaged with an iCys instrument (iCyte, Thor Labs, Newton, New Jersey) and analyzed with the ImageJ (National Institutes of Health) particle count feature. Scattering behavior was quantified by normalizing particle counts against total stained area. […] Data were assessed for normality (Shapiro–Wilk) and homoscedasticity (Brown-Forsythe). The statistical difference from HGF alone was determined by one-way ANOVA with Dunnett’s multiple comparison post-test with an alpha value of 0.05 (Prism, GraphPad).

[5] = test system: primary rat hippocampal neurons; assay: Neurite outgrowth assay (beta-III tubulin staining); assay type: cell-based; conditions: HGF alone 5 ng/mL, 4 days, vs vehicle
Description: On day 0, rat hippocampal neurons from newborn pups were isolated and cultured in brain neuronal culture medium (neurobasal medium supplemented with 5% FBS, 2% B-27 supplement, and 0.003% gentamycin) at 37 °C under 5% CO2. At 1 day in vitro (DIV1), cells were transferred to a poly-D-lysine–coated 24-well plate at approximately 10,000 cells/well. Cells were then grown in […] of serum-free medium and treated with the following: 0.1% dimethyl sulfoxide (DMSO; vehicle), 10 nM dihydrotestosterone (positive control), 10 nM fosgo-AM, 1 nM fosgo-AM, 5 ng/ml HGF, or 5 ng/ml HGF + 1 nM fosgo-AM. All treatments contained a final concentration of 0.1% DMSO. For the neurite outgrowth assay, treatment media were refreshed on DIV3, and cells were processed for analysis on DIV4. For the synaptogenesis assay, treatment media were refreshed on DIV3 and DIV6, and cells were processed for analysis on DIV8. Processing for both the neurite outgrowth and the synaptogenesis assays was performed as follows: media were removed, and cells were fixed with 100% methanol for 20 min at RT before methanol was aspirated and each well was washed twice with Dulbecco’s phosphate-buffered saline (DPBS). Cells were permeabilized using 0.02% […] (ThermoFisher, Waltham, Massachusetts) in DPBS for 2 min at RT without shaking, and plates were blocked with 5% bovine serum albumin (BSA) in DPBS for 1 h at RT. Plates were then incubated overnight at 4 °C with gentle shaking with use of beta-III tubulin antibody (ab201740; Abcam, Boston, Massachusetts) to assess neurite outgrowth or with use of 1:500 rabbit anti–synaptobrevin-II antibody (Synaptic Systems, cat# 104 202, Göttingen, Germany) to assess synaptogenesis. After overnight incubation, plates were washed 3 times with DPBS and incubated for 1 h at RT with use of anti–rabbit immunoglobulin G–secondary antibody conjugated to Alexa Fluor 488 (Life Technologies, Carlsbad, California, 1:500). After 5 DPBS washes, coverslips were mounted on slides using fluorescent mounting medium (Golden Bridge International Labs, Bothell, Washington, cat# E19-s). Imaging was performed using the BX43 Olympus microscope driven by the standard “CellSens” software by Olympus. […] Ten images of single cells from a total of 2 assays were analyzed using NeuroJ plug-in for ImageJ to assess neurite outgrowth, as neurite length and the number of branches per neuron were counted for each cell. For the synaptogenesis assay, synaptic count (number of synapses) and synaptic strength (relative abundance of presynaptic vesicles per synapse as measured by synaptobrevin-II fluorescence intensity) were quantified for each cell. Data were assessed for normality (Shapiro–Wilk) and homoscedasticity (Brown-Forsythe). […]

With `CCCCCC(=O)N[C@@H](Cc1ccc(OP(=O)(O)O)cc1)C(=O)N[C@H](C(=O)NCCCCCC(N)=O)[C@@H](C)CC` [fosgonimeton] (Hexanoyl-[pY]-Ile-[Ahx]-NH2) the “solubility in aqueous solutions” value [1] was “greater than 70 mg/mL”, the “fold higher fosgo-AM Cmax vs equivalent direct dose of fosgo-AM” value [2] was about 4 fold and the “systemic exposure of fosgo-AM vs equivalent direct dose of fosgo-AM” value [2] was “higher systemic exposure”. The “time of appearance of active compound fosgo-AM after fosgonimeton” value ([2]; first tested time point) was at most 5 min, the “time of appearance of active compound fosgo-AM after fosgonimeton” value (Fosgonimeton PK in mice) was at most 15 min and the “detection in brain regions” value [3] was “undetectable”. For the same molecule, the “percentage of recovery (spontaneous alternations)” value (“percentage of recovery” below) ([4]; 0.25 mg/kg SC once daily) was 61.76%, the “percentage of recovery” value ([4]; 0.5 mg/kg SC once daily) was 79.40% and the “percentage of recovery” value ([4]; 1 mg/kg SC once daily) was 64.70%. The “percentage of recovery” value ([4]; 1.25 mg/kg SC once daily) was 64.70% and the “percentage of spontaneous alternations vs LPS group” value ([4]; 0.25, 0.5, 1 and 1.25 mg/kg SC once daily) was “significantly ameliorated these deficits”.
In the case of `CC12CC3CC(C)(C1)CC(N)(C3)C2` [memantine, reference compound], the “percentage of spontaneous alternations vs LPS group” value ([4]; 0.1 mg/kg I.P. once daily) is reported as “significantly prevented LPS-induced cognitive deficits” and the “percentage of recovery” value ([4]; positive control, 0.1 mg/kg I.P. once daily) is reported as 76.40%.
In the case of “HGF: Recombinant HGF protein (R&D Systems), ligand of the MET receptor”, the pERK levels (ERK (Thr202/Tyr204)) is reported as “significantly increased pERK versus no HGF treatment”, the cell scattering behavior (MDCK cells) is reported as “significantly increased cell scattering behavior” and the “neurite length per cell” value [5] is reported as “no significant differences compared with vehicle”.
